We go through 13 compounds from article PMC10178127, “Immunomodulatory Effects of the Pea Defensin Psd1 in the Caco-2/Immune Cells Co-Culture upon Candida albicans Infection” (International Journal of Molecular Sciences, 2023).

≈ marks a conversion by molar mass, not a printed value. Read-outs that look alike come from different tables or passages of the source. *1 amine or outer side, *2 acyl side, *3 side chain or, on linkers, in order; H or OH if unused. Where a SMILES comes first, the peptide text is derived from it. Bridges are numbered along the chain shown (N, C = ends). [ ]: non-standard residue; d: D form. The star is where a group is joined. hTyr(3S-OH,4S-OH,3'-OSO3H) = N[C@H](C(=O)O)[C@H](O)[C@@H](O)c1ccc(O)c(OS(=O)(=O)O)c1; pTerphenylCO(4''-OnC5H11) = CCCCCOc1ccc(-c2ccc(-c3ccc(C(=O)*)cc3)cc2)cc1; Orn(4R-OH,5R-OH) = O=C([C@H](C[C@@H](O)[C@@H](O)N[*:3])N[*:1])[*:2]; hTyr(3S-OH,4S-OH) = N[C@H](C(=O)O)[C@H](O)[C@@H](O)c1ccc(O)cc1; Pro(3S-OH,4S-Me) = C[C@H]1CN[C@H](C(=O)O)[C@H]1O; X1 = CCCCCOc1ccc(-c2cc(-c3ccc(C(=O)*)cc3)no2)cc1; Gln(3R-OH) = NC(=O)C[C@@H](O)[C@H](N)C(=O)O; Hyp = O=C(O)[C@@H]1C[C@@H](O)CN1

In one series the test system is Candida albicans v47a3. Nature of the series: Sensitivity to conventional antimycotics, broth dilution method. In kind it is cell-based. From the text: The clinical isolate of Candida albicans (v47a3) was collected from the patient with human immunodeficiency virus (HIV) infection and mucosal candidiasis and provided by G.N. Gabrichevsky Research Institute for Epidemiology and Microbiology (Moscow, Russia). This strain was susceptible to conventional antifungal agents except for a slight increase in the minimal inhibitory concentrations for triazole derivatives as was shown using the broth dilution method according to [31] (Supporting Materials, Tables S2 and S3). Strain stock was kept at −70 °C in 10% non-fat milk with 10% glycerol. Melittin (>98% pure) synthesized using a standard solid-phase method was provided by Dr. Sergey V. Sychev in M.M. Shemyakin and Yu.A. Ovchinnikov Institute of Bioorganic Chemistry of the Russian Academy of Sciences (Moscow, Russia).
In general terms: In broth dilution the organism is exposed to a series of concentrations in liquid medium.

For the next series, the system named is Caco-2 cells. Particulars: known model substrates of efflux pumps; no reference given; cited from earlier work.
For series [1], the system named is human peripheral blood mononuclear cells (PBMCs). Kind of series: Resazurin-based cell cytotoxicity assay. To be noted: PBMCs, 24 h, read-out: concentration inducing 50% cell death. As for the experimental part:
The cytotoxic properties of the pea defensin Psd1 were investigated by resazurin-based cell cytotoxicity assay as previously described. In brief, PBMCs were seeded in 96-well plates at 2 × 10^6 cells per well in RPMI-1640 supplemented with 10% FBS and kept in a CO2 incubator for 24 h. After this, serial two-fold dilutions of defensin in a complete culture medium were added to the wells at final concentrations from 0.2 to 50 μM and the plates were incubated for 24 h. Resazurin (Sigma) was added at a final concentration of 70 µM, and the plates were incubated overnight (16–18 h). Fluorescent resorufin was registered using a 535/595 filter at PlateReader AF2200 (Eppendorf). Untreated cells were used as negative controls. Non-ionogenic detergent Triton X-100 and membrane-active peptide melittin from honeybee venom were used as positive controls. The cell viability was calculated according to the following equation: cell viability (%) = (Fsample/Fcontrol) × 100%. Cell lysis was monitored with an Olympus CKX41 microscope.
(In general: The colour change of resazurin is a common sign of viable cells or microbes.)

[2] abbreviates: V47A3, MIC = 50% growth inhibition, broth dilution according to EUCAST E.DEF 7.3.2, read-out: MICs.

Regarding `C[C@@H]1[C@H](O)[C@@H](C)/C=C/C=C/C=C/C=C/C=C/C=C/C=C/[C@H](O[C@@H]2O[C@H](C)[C@@H](O)[C@H](N)[C@@H]2O)C[C@@H]2O[C@](O)(C[C@@H](O)C[C@@H](O)[C@H](O)CC[C@@H](O)C[C@@H](O)CC(=O)O[C@H]1C)C[C@H](O)[C@H]2C(=O)O` [Amphotericin B], the MIC in the series on Candida albicans v47a3 (V47A3, MIC = >90% inhibition of fungal growth, broth dilution according to EUCAST E.DEF 7.3.2, read-out: MICs) turned out to be 0.5 µg/mL (≈ 0.541 µM).
`CCCCCOc1ccc(-c2ccc(-c3ccc(C(=O)N[C@H]4C[C@@H](O)[C@@H](O)NC(=O)[C@@H]5[C@@H](O)[C@@H](C)CN5C(=O)[C@H]([C@@H](C)O)NC(=O)[C@H]([C@H](O)[C@@H](O)c5ccc(O)cc5)NC(=O)[C@@H]5C[C@@H](O)CN5C(=O)[C@H]([C@@H](C)O)NC4=O)cc3)cc2)cc1` [Anidulafungin] ({pTerphenylCO(4''-OnC5H11)}-[Orn(4R-OH,5R-OH)]T[Hyp][hTyr(3S-OH,4S-OH)]T[Pro(3S-OH,4S-Me)]; lactam 1-C): the MIC with Candida albicans v47a3 (V47A3, read-out: MICs) worked out at 0.03 µg/mL (≈ 0.0263 µM).
On the same count and under the same terms, for `CC[C@H](C)C[C@H](C)CCCCCCCCC(=O)N[C@H]1C[C@@H](O)[C@@H](NCCN)NC(=O)[C@@H]2[C@@H](O)CCN2C(=O)[C@H]([C@H](O)CCN)NC(=O)[C@H]([C@H](O)[C@@H](O)c2ccc(O)cc2)NC(=O)[C@@H]2C[C@@H](O)CN2C(=O)[C@H]([C@@H](C)O)NC1=O` [Caspofungin] the value was 0.06 µg/mL (≈ 0.0549 µM).
As for `OC(Cn1cncn1)(Cn1cncn1)c1ccc(F)cc1F` [Fluconazole], in the series on Candida albicans v47a3 (setting [2]), the MIC worked out at 8 µg/mL (≈ 26.1 µM).
Still for that read-out and setting: as for `Nc1[nH]c(=O)ncc1F` [Flucytosine], the figure is ≤ 0.06 µg/mL; as for `CCC(C)n1ncn(-c2ccc(N3CCN(c4ccc(OCC5COC(Cn6cncn6)(c6ccc(Cl)cc6Cl)O5)cc4)CC3)cc2)c1=O` (stereo not shown) [Itraconazole], 0.12 µg/mL (≈ 0.17 µM).
Consider `CCCCCOc1ccc(-c2cc(-c3ccc(C(=O)N[C@H]4C[C@@H](O)[C@@H](O)NC(=O)[C@@H]5[C@@H](O)[C@@H](C)CN5C(=O)[C@H]([C@H](O)CC(N)=O)NC(=O)[C@H]([C@H](O)[C@@H](O)c5ccc(O)c(OS(=O)(=O)O)c5)NC(=O)[C@@H]5C[C@@H](O)CN5C(=O)[C@H]([C@@H](C)O)NC4=O)cc3)no2)cc1` [Micafungin] (X1-[Orn(4R-OH,5R-OH)]T[Hyp][hTyr(3S-OH,4S-OH,3'-OSO3H)][Gln(3R-OH)][Pro(3S-OH,4S-Me)]; lactam 1-C), for which, in the series with Candida albicans v47a3 (V47A3, read-out: MICs), the MIC came to 0.008 µg/mL (≈ 0.0063 µM).
In the case of `CC[C@@H]([C@H](C)O)n1ncn(-c2ccc(N3CCN(c4ccc(OC[C@@H]5CO[C@@](Cn6cncn6)(c6ccc(F)cc6F)C5)cc4)CC3)cc2)c1=O` [Posaconazole], the MIC with Candida albicans v47a3 (setting [2]) came out at 0.12 µg/mL (≈ 0.171 µM).
Still for that read-out and setting: as for `C[C@@H](c1ncncc1F)[C@](O)(Cn1cncn1)c1ccc(F)cc1F` [Voriconazole], the figure is 0.5 µg/mL (≈ 1.43 µM).
`C[C@H]1O[C@@H](O[C@H]2[C@@H](O)C[C@H](O[C@H]3[C@@H](O)C[C@H](O[C@H]4CC[C@@]5(C)[C@H](CC[C@@H]6[C@@H]5C[C@@H](O)[C@]5(C)[C@@H](C7=CC(=O)OC7)CC[C@]65O)C4)O[C@@H]3C)O[C@@H]2C)C[C@H](O)[C@@H]1O` [digoxin]: the “efflux ratio (ER)” value in the series on Caco-2 cells is on record as > 10.
Turning to `O=C1c2c(O)ccc(O)c2C(=O)c2c(NCCNCCO)ccc(NCCNCCO)c21` [mitoxantrone], in the series with Caco-2 cells, the “efflux ratio (ER)” value is reported as > 10.
On to `CC[C@]1(O)C[C@@H]2CN(CCc3c([nH]c4ccccc34)[C@@](C(=O)OC)(c3cc4c(cc3OC)N(C)[C@H]3[C@@](O)(C(=O)OC)[C@H](OC(C)=O)[C@]5(CC)C=CCN6CC[C@]43[C@@H]65)C2)C1` [vinblastine], for which the “efflux ratio (ER)” value with Caco-2 cells was > 10.
Take melittin [reference compound]: the IC50 in series [1] stood at 6.25 µM.
